The values that follow come from ChEMBL document CHEMBL1130849, “Novel 1,3-disubstituted-5,10-dihydro-5,10-dioxo-1H-benzo[g] isochromene-3 carboxamides as potent antitumor agents” (Bioorg Med Chem Lett, 1998).

Structures are written as SMILES.

In experiment [1] the test system is HT-29. The experiment is described as follows: Compound was tested for its antitumor activity against HT-29 colon carcinoma cell line. The format is functional, cell-based. The conditions noted are these: Homo sapiens.
Experiment [2] is described as follows: Selectivity ratio was determined for P-170 glycoprotein mediated multidrug resistant variant SKVLB to the ovarian cancer cell line SK-OV3. The format is functional, Cancer cell lines.
The subject of experiment [3] is SK-OV-3. The experiment is described as follows: Compound was tested for its antitumor activity against SKOV3 human ovarian cancer cell line. The format is functional, cell-based.
Experiment [4] deals with HT-29. The experiment is described as follows: Compound was tested for its antitumor activity against HT-29 colon carcinoma cell line; No activity. Format: functional, cell-based, Homo sapiens.

Regarding `COc1cccc2c1C(=O)c1c(O)c3c(c(O)c1C2=O)C[C@@](O)(C(=O)CO)C[C@@H]3O[C@H]1C[C@H](N)[C@H](O)[C@H](C)O1` [DOXORUBICIN], the IC50 in experiment [1] is 0.34 µM; in experiment [3], 0.02 µM. For the same compound, the Ratio in experiment [2] is 300.

For `O=C(NCCCBr)C1=CC2=C(CO1)C(=O)c1ccccc1C2=O`, the IC50 in experiment [1] came to 2.76 µM; in experiment [3] it was 1.06 µM. Moreover, the Ratio in experiment [2] was found to be 2.6.

With `COC1OC(C(=O)NCCCO)=CC2=C1C(=O)c1ccccc1C2=O` (centres undefined), the values for the IC50 in experiment [1] and in experiment [3] were 1.54 µM and 0.06 µM, respectively. Also, the Ratio in experiment [2] was determined as 6.

Consider `COC1OC(C(=O)NCCC[S+](C)C)=CC2=C1C(=O)c1ccccc1C2=O.[Cl-]` (centres undefined), for which the IC50 result is “Not Active” in experiment [4] and 1.3 µM in experiment [3]. In experiment [2], the Ratio is 13.

As for `CN(C)CCCNC(=O)C1=CC2=C(C(=O)c3ccccc3C2=O)C(O)O1` (centres undefined), the IC50 turned out to be 6.3 µM in experiment [1] and 3.7 µM in experiment [3]. Besides, the Ratio in experiment [2] came to 6.3.

On to `COC1OC(C(=O)NCCN2CCCC2)=CC2=C1C(=O)c1ccccc1C2=O` (centres undefined), for which the results for the 50% inhibitory concentration (IC50) in experiment [1] and in experiment [3] were 0.17 µM and 0.05 µM, respectively. Further, the Ratio in experiment [2] is 10.

With `CCCC1OC(C(=O)NCCCN(C)C)=CC2=C1C(=O)c1ccccc1C2=O` (centres undefined), the values for the IC50 in experiment [1] and in experiment [3] were 0.39 µM and 0.28 µM, respectively. Also, in experiment [2], the Ratio is on record as 2.

For `CN(C)CCCNC(=O)C1=CC2=C(CO1)C(=O)c1ccccc1C2=O`, the concentration for half-maximal inhibition (IC50) entry in experiment [4] was “Not Active”; in experiment [3], 0.22 µM. In addition, the Ratio in experiment [2] was 5.4.

For the compound `COC1OC(C(=O)NCCCNC(=O)C2=CC3=C(C(=O)c4ccccc4C3=O)C(OC)O2)=CC2=C1C(=O)c1ccccc1C2=O` (centres undefined), the IC50 in experiment [1] was 0.15 µM; in experiment [3], 0.014 µM. In addition, the Ratio in experiment [2] is 111.

As to `COC1OC(C(=O)NCCCN(C)C)=CC2=C1C(=O)c1ccccc1C2=O` (centres undefined), the IC50 in experiment [1] was 0.07 µM; in experiment [3] it was 0.007 µM. The Ratio in experiment [2] is 9.3.

For the compound `COC1OC(C(=O)NCC[N+](C)(C)C)=CC2=C1C(=O)c1ccccc1C2=O` (centres undefined), the IC50 in experiment [1] amounted to 32.3 µM; in experiment [3] it was 19.5 µM. Besides, the Ratio in experiment [2] amounted to 1.5.

As to `COC1OC(C(=O)N(C)CCN(C)C)=CC2=C1C(=O)c1ccccc1C2=O` (centres undefined), the IC50 in experiment [1] is 1.18 µM; in experiment [3], 0.11 µM. The Ratio in experiment [2] was determined as 5.4.

As for `COC1OC(C(=O)NCCCCN(C)C)=CC2=C1C(=O)c1ccccc1C2=O` (centres undefined), the IC50 entry in experiment [4] is “Not Active”; in experiment [3], 0.14 µM. In addition, the Ratio in experiment [2] was found to be 4.1.
